Measurements from patent US20050250818A1, “Ortho substituted aryl or heteroaryl amide compounds” (Pfizer Inc, priority 2004, published 2005).

Each compound was assayed against T1, human EP4 receptors (Homo sapiens, UniProt P35408) (assay: cAMP assay in human EP4 transfectant). Details: HEK293 cells expressing human EP4 receptors; 1 nM PGE2, 0.2 mM IBMX, 37° C. for 10 min.
T1 construct: expressed in transfected cells
Type: cell-based
Procedure: cAMP Assay in Human EP4 Transfectant HEK293 cells expressing human EP4 receptors (hEP4 cells) are maintained in DMEM containing 10% FBS and 500 μg/ml geneticin. For harvesting hEP4 cells, culture medium is aspirated and cells in 75 cm^2 flask are washed with 10 ml of phosphate buffered saline (PBS). Another 10 ml of PBS is added to the cells and incubated for 20 min at room temperature. Human EP4 cells are harvested by pipetting and centrifuged at 300×g for 4 min. Cells are resuspended in DMEM without neutral red at a density of 7×10^5 cells/ml containing 0.2 mM IBMX (PDE inhibitor), 1 nM PGE2 and test compounds in PCR-tubes, and incubated at 37° C. for 10 min. The reaction is stopped by heating at 100° C. for 10 min with thermal cycler. Concentration of cAMP in reaction mixtures is determined with SPA cAMP Kit (Amersham) or cAMP Screen™ (Applied Biosystems) according to the manufacture's instruction. Reference: Eur. J. Pharmacol. 340 (1997) 227-241 cAMP assay in human EP4 transfectant were conducted using the method described above. IC50: the concentration of the individual compound required to reduce the amount of ligand by 50%.

T1 sequence (P35408 whole entry): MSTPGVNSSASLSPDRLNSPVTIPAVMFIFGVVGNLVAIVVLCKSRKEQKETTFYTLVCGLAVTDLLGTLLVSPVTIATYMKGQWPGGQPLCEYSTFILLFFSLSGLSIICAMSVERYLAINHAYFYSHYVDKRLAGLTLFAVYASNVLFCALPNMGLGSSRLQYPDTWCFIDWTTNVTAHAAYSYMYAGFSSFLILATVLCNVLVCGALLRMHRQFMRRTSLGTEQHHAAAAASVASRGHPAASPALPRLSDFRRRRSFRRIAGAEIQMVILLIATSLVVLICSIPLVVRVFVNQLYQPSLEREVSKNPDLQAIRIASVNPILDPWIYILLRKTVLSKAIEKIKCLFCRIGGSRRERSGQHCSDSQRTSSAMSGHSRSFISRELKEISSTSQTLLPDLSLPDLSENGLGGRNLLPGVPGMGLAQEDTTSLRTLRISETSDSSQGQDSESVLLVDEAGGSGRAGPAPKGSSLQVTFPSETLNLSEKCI

| Compound | IC50 [nM] |
| --- | --- |
| O=C(O)c1ccc(CNC(=O)c2cc(Cl)ccc2OCCc2ccccc2)cc1 [EXAMPLE 1, 4-({[5-CHLORO-2-(2-PHENYLETHOXY-)BENZOYL]AMINO}METHYL)BENZOIC ACID] | 149 |
| O=C(O)c1ccc(CNC(=O)c2cc(Cl)ccc2OCCc2ccccc2Cl)cc1 [EXAMPLE 2, 4-[({5-CHLORO-2-[2-(2-CHLOROPHENYL)ETHOXY]BENZOYL}AMINO)METHYL]BENZOIC ACID] | 108 |
| O=C(O)c1ccc(CNC(=O)c2cc(Cl)ccc2OCCc2ccc(F)cc2)cc1 [EXAMPLE 3, 4-[({5-CHLORO-2-[2-(4-FLUOROPHENYL)ETHOXY]BENZOYL}AMINO)METHYL]BENZOIC ACID] | 126 |
| O=C(O)c1ccc(CNC(=O)c2cc(Cl)ccc2OCCc2ccc(Cl)cc2)cc1 [EXAMPLE 4, 4-[({5-CHLORO-2-[2-(4-CHLOROPHENYL)ETHOXY]BENZOYL}AMINO)METHYL]BENZOIC ACID] | 107 |
| O=C(O)c1ccc(CNC(=O)c2cc(Cl)ccc2OCc2ccc(Cl)cc2)cc1 [EXAMPLE 6, 4-[({5-CHLORO-2-[(4-CHLOROBENZYL)OXY]BENZOYL)AMINO)METHYL]BENZOIC ACID] | 441 |
| Cc1ccccc1CCOc1ccc(Cl)cc1C(=O)NCc1ccc(C(=O)O)cc1 [EXAMPLE 7, 4-[({5-CHLORO-2-[2-(2-METHYLPHENYL)ETHOXY]BENZOYL}AMINO)METHYL]BENZOIC ACID] | 62 |
| C[C@H](NC(=O)c1cc(Cl)ccc1OCCc1c(F)cccc1F)c1ccc(C(=O)O)cc1 [EXAMPLE 8, 4-[(1S)-1-({5-CHLORO-2-[2-(2,6-DIFLUOROPHENYL)ETHOXY]BENZOYL}AMINO)ETHYL]BENZOIC ACID] | 98 |
| C[C@H](NC(=O)c1cc(Cl)cnc1OCCc1ccc(F)cc1)c1ccc(C(=O)O)cc1 [EXAMPLE 9, 4-{(1S)-1-[({5-CHLORO-2-[2-(4-FLUOROPHENYL)ETHOXY]PYRIDIN-3-YL}CARBONYL)AMINO]ETHYL}BENZOIC ACID] | 240 |
| C[C@H](NC(=O)c1cc(Cl)ccc1OCCc1ccccc1F)c1ccc(C(=O)O)cc1 [EXAMPLE 10, 4-[(1S)-1-({5-CHLORO-2-[2-(2-FLUOROPHENYL)ETHOXY]BENZOYL}AMINO)ETHYL]BENZOIC ACID] | 48 |
| Cc1ccccc1CCOc1ccc(Cl)cc1C(=O)N[C@@H](C)c1ccc(C(=O)O)cc1 [EXAMPLE 11, 4-[(1S)-1-({5-CHLORO-2-[2-(2-METHYLPHENYL)ETHOXY]BENZOYL}AMINO)ETHYL]BENZOIC ACID] | 20 |
| Cc1ccc(CCOc2ccc(Cl)cc2C(=O)N[C@@H](C)c2ccc(C(=O)O)cc2)cc1 [EXAMPLE 12, 4-[(1S)-1-({5-CHLORO-2-[2-(4-METHYLPHENYL)ETHOXY]BENZOYL}AMINO)ETHYL]BENZOIC ACID] | 21 |
| C[C@H](NC(=O)c1cc(Cl)ccc1OC1CCCCC1)c1ccc(C(=O)O)cc1 [EXAMPLE 13, 4-((1S)-1-{[5-CHLORO-2-(CYCLOHEXYLOXY)BENZOYL]AMINO}ETHYL)BENZOIC ACID] | 35 |
| CC(C)CCOc1ccc(Cl)cc1C(=O)N[C@@H](C)c1ccc(C(=O)O)cc1 [EXAMPLE 14, 4-((1S)-1-{[5-CHLORO-2-(3-METHYLBUTOXY)BENZOYL]AMINO}ETHYL)BENZOIC ACID] | 41 |
| C[C@H](NC(=O)c1cc(Cl)cnc1OCCc1ccc(Cl)cc1)c1ccc(C(=O)O)cc1 [EXAMPLE 15, 4-{(1S)-1-[({5-CHLORO-2-[2-(4-CHLOROPHENYL)ETHOXY]PYRIDIN-3-YL}CARBONYL)AMINO]ETHYL}BENZOIC ACID] | 78 |
| C[C@H](NC(=O)c1cc(Cl)cnc1N(C)CCc1ccccc1)c1ccc(C(=O)O)cc1 [EXAMPLE 16, 4-{(1S)-1-[({5-CHLORO-2-[METHYL(2-PHENYLETHYL)AMINO]PYRIDIN-3-YL}CARBONYL)AMINO]ETHYL}BENZOIC ACID] | 350 |
| C[C@H](NC(=O)c1cc(Cl)ccc1O[C@H]1CC[C@@H](C)CC1)c1ccc(C(=O)O)cc1 [EXAMPLE 17, 4-[(1S)-1-({5-CHLORO-2-[(C/S4-METHYLCYCLOHEXYL)OXY]BENZOYL}AMINO)ETHYL]BENZOIC ACID] | 510 |
| C[C@H](NC(=O)c1cc(Cl)ccc1O[C@H]1CC[C@H](C)CC1)c1ccc(C(=O)O)cc1 [EXAMPLE 18, 4-[(1S)-1-({5-CHLORO-2-[(TRANS-4-METHYLCYCLOHEXYL)OXY]BENZOYL}AMINO)ETHYL]BENZOIC ACID] | 260 |
| Cc1ccccc1CCOc1ncc(Cl)cc1C(=O)N[C@@H](C)c1ccc(C(=O)O)cc1 [EXAMPLE 19, 4-{(1S)-1-[({5-CHLORO-2-[2-(2-METHYLPHENYL)ETHOXY]PYRIDIN-3-YL}CARBONYL)AMINO]ETHYL}BENZOIC ACID] | 130 |
| COC(C)(C)CCOc1ccc(Cl)cc1C(=O)N[C@@H](C)c1ccc(C(=O)O)cc1 [EXAMPLE 20, 4-((1S)-1-{[5-CHLORO-2-(3-METHOXY-3-METHYLBUTOXY)BENZOYL]AMINO}ETHYL)BENZOIC ACID] | 510 |

| Compound | IC50 [nM] |
| --- | --- |
| CC(C)OCCOc1ccc(Cl)cc1C(=O)N[C@@H](C)c1ccc(C(=O)O)cc1 [EXAMPLE 21, 4-((1S)-1-{[5-CHLORO-2-(2-ISOPROPOXYETHOXY)BENZOYL]AMINO}ETHYL)BENZOIC ACID] | 200 |
| C[C@H](NC(=O)c1cc(Cl)ccc1OCc1ccccc1Cl)c1ccc(C(=O)O)cc1 [EXAMPLE 22, 4-[(1S)-1-({5-CHLORO-2-[(2-CHLOROBENZYL)OXY]BENZOYL}AMINO)ETHYL]BENZOIC ACID] | 13 |
| C[C@H](NC(=O)c1cc(Cl)ccc1OCc1cccc(Cl)c1)c1ccc(C(=O)O)cc1 [EXAMPLE 23, 4-[(1S)-1-({5-CHLORO-2-[(3-CHLOROBENZYL)OXY]BENZOYL}AMINO)ETHYL]BENZOIC ACID] | 22 |
| C[C@H](NC(=O)c1cc(Cl)ccc1OCc1ccc(Cl)cc1)c1ccc(C(=O)O)cc1 [EXAMPLE 24, 4-[(1S)-1-({5-CHLORO-2-[(4-CHLOROBENZYL)OXY]BENZOYL}AMINO)ETHYL]BENZOIC ACID] | 29 |
| C[C@H](NC(=O)c1cc(Cl)ccc1OCc1ccc(F)cc1)c1ccc(C(=O)O)cc1 [EXAMPLE 25, 4-[(1S)-1-({5-CHLORO-2-[(4-FLUOROBENZYL)OXY]BENZOYL}AMINO)ETHYL]BENZOIC ACID] | 46 |
| C[C@H](NC(=O)c1cc(Cl)ccc1OCCOc1ccccc1)c1ccc(C(=O)O)cc1 [EXAMPLE 26, 4-((1S)-1-{[5-CHLORO-2-(2-PHENOXYETHOXY)BENZOYL]AMINO}ETHYL)BENZOIC ACID] | 62 |
| COC(COc1ccc(Cl)cc1C(=O)N[C@@H](C)c1ccc(C(=O)O)cc1)c1ccccc1 (stereo partly drawn) [EXAMPLE 27, 4-((1S)-1-{[5-CHLORO-2-(2-METHOXY-2-PHENYLETHOXY)BENZOYL]AMINO}ETHYL)BENZOIC ACID] | 140 |
| C[C@H](NC(=O)c1cc(Cl)ccc1OCCOc1ccc(F)cc1)c1ccc(C(=O)O)cc1 [EXAMPLE 28, 4-[(1S)-1-({5-CHLORO-2-[2-(4-FLUOROPHENOXY)ETHOXY]BENZOYL}AMINO)ETHYL]BENZOIC ACID] | 210 |
| C[C@H](NC(=O)c1cc(Cl)ccc1OCC1CCC1)c1ccc(C(=O)O)cc1 [EXAMPLE 29, 4-((1S)-1-{[5-CHLORO-2-(CYCLOBUTYLMETHOXY)BENZOYL]AMINO}ETHYL)BENZOIC ACID] | 30 |
| CC(C)COc1ccc(Cl)cc1C(=O)N[C@@H](C)c1ccc(C(=O)O)cc1 [EXAMPLE 30, 4-{(1S)-1-[(5-CHLORO-2-ISOBUTOXYBENZOYL)AMINO}ETHYL]BENZOIC ACID] | 140 |
| CC(C)CCOc1ncc(Cl)cc1C(=O)N[C@@H](C)c1ccc(C(=O)O)cc1 [EXAMPLE 31, 4-[(1S)-1-({[5-CHLORO-2-(3-METHYLBUTOXY)PYRIDIN-3-YL]CARBONYL}AMINO)ETHYL]BENZOIC ACID] | 140 |
| C[C@H](NC(=O)c1cc(Cl)ccc1OCc1cc(F)ccc1F)c1ccc(C(=O)O)cc1 [EXAMPLE 32, 4-[(1S)-1-({5-CHLORO-2-[(2,5-DIFLUOROBENZYL)OXY]BENZOYL}AMINO)ETHYL]BENZOIC ACID] | 50 |
| C[C@H](NC(=O)c1cc(Cl)ccc1OCc1ccc(F)c(F)c1)c1ccc(C(=O)O)cc1 [EXAMPLE 33, 4-[(1S)-1-({5-CHLORO-2-[(3,4-DIFLUOROBENZYL)OXY]BENZOYL}AMINO)ETHYL]BENZOIC ACID] | 63 |
| C[C@H](NC(=O)c1cc(Cl)ccc1OCCc1ccc(F)cc1)c1ccc(C(=O)O)cc1 [EXAMPLE 34, 4-[(1S)-1-({5-CHLORO-2-[2-(4-FLUOROPHENYL)ETHOXY]BENZOYL}AMINO)ETHYL]BENZOIC ACID] | 41 |
| C[C@H](NC(=O)c1cc(Cl)ccc1OCc1ccc(F)cc1F)c1ccc(C(=O)O)cc1 [EXAMPLE 35, 4-[(1S)-1-({5-CHLORO-2-[(2,4-DIFLUOROBENZYL)OXY]BENZOYL}AMINO)ETHYL]BENZOIC ACID] | 110 |
| C[C@H](NC(=O)c1cc(Cl)ccc1OCc1ccccc1F)c1ccc(C(=O)O)cc1 [EXAMPLE 36, 4-[(1S)-1-({5-CHLORO-2-[(2-FLUOROBENZYL)OXY]BENZOYL}AMINO)ETHYL]BENZOIC ACID] | 170 |
| C[C@H](NC(=O)c1cc(Cl)ccc1OCc1cc(F)cc(F)c1)c1ccc(C(=O)O)cc1 [EXAMPLE 37, 4-[(1S)-1-({5-CHLORO-2-[(3,5-DIFLUOROBENZYL)OXY]BENZOYL}AMINO)ETHYL]BENZOIC ACID] | 78 |
| C[C@H](NC(=O)c1cc(Cl)ccc1OCc1ccccc1)c1ccc(C(=O)O)cc1 [EXAMPLE 38, 4-((1S)-1-{[2-(BENZYLOXY)-5-CHLOROBENZOYL]AMINO}ETHYL)BENZOIC ACID] | 75 |
